Data from ChEMBL document CHEMBL1201862, “PubChem BioAssay data set” (2004).
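Dose response: 5 concentrations. Exposure: 48 h. Format: 96-well plates. Endpoint: linear interpolation; highest concentration if not reached. Here, GI50 denotes the concentration required for 50% inhibition of growth.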 Active and inactive are the calls of the source. Rule as the data show it: active = GI50 up to about 1.1 µM and inactive = higher.

Legend:
Assay in all cases: NCI-60 cell line screen, 48 h
ACHN = tested on: ACHN
CAKI-1 = tested on: CAKI-1
HCC 2998 = tested on: HCC 2998
HCT-116 = tested on: HCT-116
HCT-15 = tested on: HCT-15
HL-60 = tested on: HL-60
Hs-578T = tested on: Hs-578T
M14 = tested on: M14
MDA-MB-435 = tested on: MDA-MB-435
NCI-H23 = tested on: NCI-H23
OVCAR-4 = tested on: OVCAR-4
OVCAR-5 = tested on: OVCAR-5
OVCAR-8 = tested on: OVCAR-8
RPMI-8226 = tested on: RPMI-8226
SK-MEL-2 = tested on: SK-MEL-2
SNB-19 = tested on: SNB-19
SW-620 = tested on: SW-620
K562 = tested on: K562
UO-31 = tested on: UO-31
HOP-92 = tested on: HOP-92

Compound | GI50 (ACHN) | GI50 (CAKI-1) | GI50 (HCC 2998) | GI50 (HCT-116) | GI50 (HCT-15) [µM] | GI50 (HL-60) | GI50 (Hs-578T) | GI50 (M14) | GI50 (MDA-MB-435) | GI50 (NCI-H23) | GI50 (OVCAR-4) | GI50 (OVCAR-5) | GI50 (OVCAR-8) | GI50 (RPMI-8226) | GI50 (SK-MEL-2) | GI50 (SNB-19) | GI50 (SW-620) | GI50 (K562) | GI50 (UO-31) | GI50 (HOP-92)
CC(C)=c1sc(=C(C)C)c2c1=NC(C)(C)N=2 | 37.5 µM (inactive) | 77.1 µM (inactive) | 27.5 µM (inactive) | 50.5 µM (inactive) | 47.8 | 57.4 µM (inactive) | 53.6 µM (inactive) | 77.4 µM (inactive) | > 100 µM (inactive) | 53.7 µM (inactive) | > 100 µM (inactive) | 36.5 µM (inactive) | 94 µM (inactive) | 37.2 µM (inactive) | 26.7 µM (inactive) | > 100 µM (inactive) | 72.6 µM (inactive) |  |  | 
CCOC(=O)/C=C(/C=C\COC1CCCCO1)c1ccccc1 (stereo not given) | 48 µM (inactive) | 33.7 µM (inactive) | > 100 µM (inactive) | 16 µM (inactive) | 27.4 | 18.3 µM (inactive) | 22.3 µM (inactive) | 38.6 µM (inactive) | 25.2 µM (inactive) | 38.4 µM (inactive) | 31.5 µM (inactive) | 96.2 µM (inactive) | 23.1 µM (inactive) | 27.5 µM (inactive) | 55.2 µM (inactive) | 36.5 µM (inactive) | 28.3 µM (inactive) | 28.5 µM (inactive) | 36 µM (inactive) | 
CCOP(=O)(C[S+](C)[O-])O[C@@H]1C[C@H](C)CC[C@H]1C(C)C (stereo not given in full) | 4.43 µM (inactive) | 2.88 µM (inactive) |  | 2.75 µM (inactive) | 2.71 | 3.48 µM (inactive) | 3.26 µM (inactive) | 8.3 µM (inactive) | 3.21 µM (inactive) | 4.13 µM (inactive) | 15 µM (inactive) | 4.28 µM (inactive) | 4.48 µM (inactive) | 1.85 µM (inactive) | 4.47 µM (inactive) | 12.2 µM (inactive) | 3.72 µM (inactive) | 3.4 µM (inactive) | 1.17 µM (inactive) | 3.97 µM (inactive)
COC(=O)C1CC(C=O)=C(SC)N1 (stereo not given) | > 50 µM (inactive) | > 50 µM (inactive) | > 50 µM (inactive) | > 50 µM (inactive) | > 50 |  | > 50 µM (inactive) | > 50 µM (inactive) | > 50 µM (inactive) | > 50 µM (inactive) | > 50 µM (inactive) | > 50 µM (inactive) | > 50 µM (inactive) | > 50 µM (inactive) | > 50 µM (inactive) | > 50 µM (inactive) | > 50 µM (inactive) | > 50 µM (inactive) | > 50 µM (inactive) | > 50 µM (inactive)
CC(=O)Nc1ccc(C(=O)NN2C(=O)CSC2c2ccccc2)cc1 (stereo not given) | > 100 µM (inactive) |  | > 100 µM (inactive) | > 100 µM (inactive) | > 100 |  | > 100 µM (inactive) | > 100 µM (inactive) | > 100 µM (inactive) | > 100 µM (inactive) | > 100 µM (inactive) | > 100 µM (inactive) | > 100 µM (inactive) | > 100 µM (inactive) | 69.5 µM (inactive) | > 100 µM (inactive) | > 100 µM (inactive) | > 100 µM (inactive) | > 100 µM (inactive) | > 100 µM (inactive)
CC1(CCC(=O)OC2CCCCC2)OCCO1 | > 100 µM (inactive) | > 100 µM (inactive) |  | > 100 µM (inactive) | > 100 | > 100 µM (inactive) | > 100 µM (inactive) | > 100 µM (inactive) | > 100 µM (inactive) | > 100 µM (inactive) | > 100 µM (inactive) | > 100 µM (inactive) | > 100 µM (inactive) | > 100 µM (inactive) | > 100 µM (inactive) | > 100 µM (inactive) | > 100 µM (inactive) | > 100 µM (inactive) | > 100 µM (inactive) | > 100 µM (inactive)
O1C2C1C1OC1C1OC1C1OC21 (stereo not given) | > 100 µM (inactive) | > 100 µM (inactive) |  | > 100 µM (inactive) | > 100 |  | > 100 µM (inactive) | > 100 µM (inactive) | > 100 µM (inactive) | > 100 µM (inactive) | > 100 µM (inactive) | > 100 µM (inactive) | > 100 µM (inactive) |  | > 100 µM (inactive) | > 100 µM (inactive) |  | > 100 µM (inactive) | > 100 µM (inactive) | > 100 µM (inactive)
C=C(CCOC)CCC1CCCCC(=C)C1=O (stereo not given) | > 100 µM (inactive) | > 100 µM (inactive) | > 100 µM (inactive) | > 100 µM (inactive) | > 100 | > 100 µM (inactive) | > 100 µM (inactive) | > 100 µM (inactive) | > 100 µM (inactive) | > 100 µM (inactive) | > 100 µM (inactive) | > 100 µM (inactive) | > 100 µM (inactive) | > 100 µM (inactive) | > 100 µM (inactive) | > 100 µM (inactive) | > 100 µM (inactive) | > 100 µM (inactive) | > 100 µM (inactive) | 
COC(=O)[C@H](Cc1ccccc1)NC(=O)N(CCC#N)CCN(C(=O)N[C@@H](Cc1ccccc1)C(=O)OC)c1ccccc1 | 18.9 µM (inactive) | 20 µM (inactive) | 28.2 µM (inactive) | 28.1 µM (inactive) | 38.5 |  | 32.7 µM (inactive) | 24.9 µM (inactive) | 18.9 µM (inactive) | 32.7 µM (inactive) | 23.6 µM (inactive) | > 100 µM (inactive) | 37.8 µM (inactive) | 21 µM (inactive) | 18.5 µM (inactive) | 49.5 µM (inactive) | 35.1 µM (inactive) |  | 17.6 µM (inactive) | 18.7 µM (inactive)
CCOC(=O)C1=C(C)N(c2ccc(Cl)cc2)C2(O)C=CC(O)=C3C(=O)c4ccccc4C(=O)C312 (stereo not given) | 5 µM (inactive) | 1.96 µM (inactive) |  | 3.2 µM (inactive) | 2.12 | 2.37 µM (inactive) | 4.26 µM (inactive) | 2.63 µM (inactive) | 2.59 µM (inactive) | 10.1 µM (inactive) | 3.97 µM (inactive) | 12.9 µM (inactive) | 5.11 µM (inactive) | 1.8 µM (inactive) | 4.32 µM (inactive) | 12.9 µM (inactive) | 4.08 µM (inactive) | 4.23 µM (inactive) | 3.92 µM (inactive) | 1.73 µM (inactive)
Nc1nc2c(ncn2CC2CCC(CO)C2)c(=O)[nH]1 (stereo not given) | > 100 µM (inactive) | > 100 µM (inactive) | > 100 µM (inactive) | > 100 µM (inactive) | > 100 |  | > 100 µM (inactive) | > 100 µM (inactive) | > 100 µM (inactive) |  | > 100 µM (inactive) | > 100 µM (inactive) |  | > 100 µM (inactive) | > 100 µM (inactive) | > 100 µM (inactive) | > 100 µM (inactive) | > 100 µM (inactive) | > 100 µM (inactive) | > 100 µM (inactive)
